Marks after values point to notes of the source that are not given here.
Columns and labels:
[1] = tested on: PoAbs (anti-NIV polyclonal antibodies, mouse serum); type: binding
MoAb MNV80 (IgG1, κ) = type: binding, mouse
MoAb MNV87 (IgG1, κ) = type: binding, mouse
[2] = cited from earlier work
[3] = tested on: monoclonal antibody (MoAb) prepared by Maragos et al.; details: cited from earlier work
animals = details: cited from earlier work

Row | Compound | IC50 (fifty percent inhibitory concentration) with PoAb [1] | IC50 (fifty percent inhibitory concentration) with MoAb MNV80 (MoAb MNV80 (IgG1, κ)) | reactivity with MNV80 (in words) (MoAb MNV80 (IgG1, κ)) | IC50 (fifty percent inhibitory concentration) with MoAb MNV87 (MoAb MNV87 (IgG1, κ)) | reactivity with MNV87 (in words) (MoAb MNV87 (IgG1, κ)) | fold lower IC50 than that with NIV, PoAbs [1] | reaction range, concentrations between the IC20 and IC80 values, PoAbs [1] | fold lower IC50 than that with NIV, MNV80 (MoAb MNV80 (IgG1, κ)) | reaction range, concentrations between the IC20 and IC80 values, MNV80 (MoAb MNV80 (IgG1, κ)) | fold lower IC50 than that with NIV, MNV87 (MoAb MNV87 (IgG1, κ)) | reaction range, concentrations between the IC20 and IC80 values, MNV87 (MoAb MNV87 (IgG1, κ)) | temporary tolerable daily intake level ([2]; LOAEL with a safety factor of 1000) | IC50 of PoAb after the 1st booster immunization [1] | cross-reactivity compared to reactivity with DON [3] | lowest observed adverse effect level [2] | toxicity to animals compared with DON (in words) (animals)
1 | 4-acetylnivalenol [4-Ac-NIV] | >1000 ng/mL | >1 µg/mL | not | >1 µg/mL | not |  |  |  |  |  |  |  |  |  |  | 
2 | CC(=O)O[C@@H]1C[C@]2(C)[C@@]3(CO)[C@H](O)C(=O)C(C)=C[C@H]3O[C@H]1[C@@]21CO1 [3-Ac-DON, 3-acetyldeoxynivalenol] |  | >1 µg/mL |  | >1 µg/mL |  |  |  |  |  |  |  |  |  |  |  | 
3 | CC(=O)OC[C@]12[C@H](O)C(=O)C(C)=C[C@H]1O[C@@H]1[C@H](O)C[C@@]2(C)[C@]12CO2 [15-Ac-DON, 15-acetyldeoxynivalenol] |  | >1 µg/mL |  | >1 µg/mL |  |  |  |  |  |  |  |  |  |  |  | 
4 | CC(=O)OC[C@]12[C@H](O)C(=O)C(C)=C[C@H]1O[C@@H]1[C@H](O)[C@@H](O)[C@@]2(C)[C@]12CO2 [15-Ac-NIV, 15-acetylnivalenol] | 11 ng/mL | 0.018 µg/mL | specifically reacted | 0.018 µg/mL | specifically reacted | 6.4 fold | 0.0017 to 0.085 µg/mL | 2 fold | 0.0028 to 0.1 µg/mL | 2 fold | 0.0024 to 0.095 µg/mL |  |  |  |  | 
5 | CC1=C[C@H]2O[C@@H]3[C@H](O)C[C@](C)([C@@]2(CO)[C@H](O)C1=O)[C@]31CO1 [DON, deoxynivalenol] | >1000 ng/mL | >1 µg/mL | not | >1 µg/mL | not |  |  |  |  |  |  | 1.0 μg/kg body weight |  |  |  | 
6 | CC1=C[C@H]2O[C@@H]3[C@H](O)[C@@H](O)[C@](C)([C@@]2(CO)[C@H](O)C1=O)[C@]31CO1 [NIV, nivalenol] | 70 * ng/mL | 0.036 µg/mL | specifically reacted | 0.037 µg/mL | specifically reacted |  | 0.012 to 0.95 µg/mL |  | 0.0069 to 0.18 µg/mL |  | 0.0071 to 0.17 µg/mL |  | 1.4 µg/mL | 57.4% | 0.7 mg/kg body weight per day | more toxic to animals than DON
